The values below come from PubChem BioAssay AID328 (DTP/NCI, 2004).

The subject of the experiment is BDF1 mice, P388 leukemia ip, median survival T/C. Description: NCI In Vivo Anticancer Drug Screen. Data for tumor model P388 Leukemia (intraperitoneal) in B6D2F1 (BDF1) mice. Particulars: endpoint: median survival time, higher = longer survival. The gist of the method: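 In tumour-bearing mice, survival after compound treatment is set against the vehicle group and given as a quotient.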

[1] abbreviates: dose: 0.5 mg/kg/injection, schedule: Q01DX009 (ip), vehicle: Klucel (hydroxypropylcellulose) (HPC).
The mark [2] stands for this setting: dose: 2.0 mg/kg/injection, schedule: Q01DX009 (ip), vehicle: Klucel (hydroxypropylcellulose) (HPC).
The mark [3] stands for this setting: dose: 25.0 mg/kg/injection, schedule: Q04DX003 (ip), vehicle: saline.
Where [4] appears, read: dose: 100.0 mg/kg/injection, schedule: Q04DX003 (ip), vehicle: Klucel (hydroxypropylcellulose) (HPC).
Where [5] appears, read: dose: 200.0 mg/kg/injection, schedule: Q04DX003 (ip), vehicle: Klucel (hydroxypropylcellulose) (HPC).
The mark [6] stands for this setting: dose: 400.0 mg/kg/injection, schedule: Q04DX003 (ip), vehicle: Klucel (hydroxypropylcellulose) (HPC).
Where [7] appears, read: dose: 100.0 mg/kg/injection, schedule: Q04DX003 (ip), vehicle: saline with Tween-80.
[8] abbreviates: dose: 200.0 mg/kg/injection, schedule: Q04DX003 (ip), vehicle: saline with Tween-80.
Where [9] appears, read: dose: 400.0 mg/kg/injection, schedule: Q04DX003 (ip), vehicle: saline with Tween-80.

Values joined by “and” are separate entries in the source; they are usually repeats but may differ in a detail not shown here. Equal entries are not always repeated. Toxic doses and inconclusive results are not listed. Non-standard residues stand in square brackets, D forms with d. Residues, ends and D or L forms follow the SMILES beside them. ξ: configuration not given here. ξK = NCCCCC(N)C(=O)O

Take `CCOC(=O)Cc1c[nH]c2ccc(N(CCCl)CCCl)cc12`: the T/C (dose: 0.11 mg/kg/injection, schedule: Q04DX003 (ip), vehicle: Klucel (hydroxypropylcellulose) (HPC)) is 116 % of control; the T/C (dose: 0.17 mg/kg/injection, schedule: Q04DX003 (ip), vehicle: Klucel (hydroxypropylcellulose) (HPC)) was 120 % of control; the T/C (dose: 0.26 mg/kg/injection, schedule: Q04DX003 (ip), vehicle: Klucel (hydroxypropylcellulose) (HPC)) is 100 % of control; the T/C under setting [1] was 154 % of control; the T/C (dose: 0.8 mg/kg/injection, schedule: Q01DX009 (ip), vehicle: Klucel (hydroxypropylcellulose) (HPC)) is 175 % of control; the T/C (dose: 0.9 mg/kg/injection, schedule: Q04DX003 (ip), vehicle: Klucel (hydroxypropylcellulose) (HPC)) was 154 % of control. Also, the T/C was 250 % of control (dose: 1.3 mg/kg/injection, schedule: Q01DX009 (ip), vehicle: Klucel (hydroxypropylcellulose) (HPC)); 163 % of control (dose: 1.4 mg/kg/injection, schedule: Q04DX003 (ip), vehicle: Klucel (hydroxypropylcellulose) (HPC)); 272 % of control under setting [2]; 204 % of control (dose: 2.2 mg/kg/injection, schedule: Q04DX003 (ip), vehicle: Klucel (hydroxypropylcellulose) (HPC)); 230 % of control and 272 % of control (dose: 3.0 mg/kg/injection, schedule: Q01DX009 (ip), vehicle: Klucel (hydroxypropylcellulose) (HPC)); 222 % of control (dose: 3.3 mg/kg/injection, schedule: Q04DX003 (ip), vehicle: Klucel (hydroxypropylcellulose) (HPC)). Further, the T/C was 154 % of control (dose: 4.5 mg/kg/injection, schedule: Q01DX009 (ip), vehicle: Klucel (hydroxypropylcellulose) (HPC)); 245 % of control and 272 % of control (dose: 5.0 mg/kg/injection, schedule: Q04DX003 (ip), vehicle: Klucel (hydroxypropylcellulose) (HPC)); 107 % of control (dose: 6.0 mg/kg/injection, schedule: Q01DX009 (ip), vehicle: Klucel (hydroxypropylcellulose) (HPC)); 240 % of control (dose: 7.5 mg/kg/injection, schedule: Q04DX003 (ip), vehicle: Klucel (hydroxypropylcellulose) (HPC)); 272 % of control (dose: 8.0 mg/kg/injection, schedule: Q04DX003 (ip), vehicle: Klucel (hydroxypropylcellulose) (HPC)); 272 % of control (dose: 12.5 mg/kg/injection, schedule: Q04DX003 (ip), vehicle: Klucel (hydroxypropylcellulose) (HPC)).
With `Cc1[nH]c(=O)[nH]c(=O)c1/C=C/C(=O)NC(CO)CC(C)C` (centres undefined), the T/C is 108 % of control (dose: 12.5 mg/kg/injection, schedule: Q01DX009 (ip), vehicle: saline); 90 % of control (dose: 25.0 mg/kg/injection, schedule: Q01DX009 (ip), vehicle: saline); 107 % of control under setting [3]; 102 % of control (dose: 50.0 mg/kg/injection, schedule: Q01DX009 (ip), vehicle: saline); 100 % of control (dose: 50.0 mg/kg/injection, schedule: Q04DX003 (ip), vehicle: saline); 91 % of control (dose: 100.0 mg/kg/injection, schedule: Q01DX009 (ip), vehicle: saline). Moreover, the T/C runs as follows: (dose: 100.0 mg/kg/injection, schedule: Q04DX003 (ip), vehicle: saline) 91 % of control; (dose: 200.0 mg/kg/injection, schedule: Q01DX009 (ip), vehicle: saline) 108 % of control; (dose: 200.0 mg/kg/injection, schedule: Q04DX003 (ip), vehicle: saline) 109 % of control; (dose: 400.0 mg/kg/injection, schedule: Q01DX009 (ip), vehicle: saline) 100 % of control; (dose: 400.0 mg/kg/injection, schedule: Q04DX003 (ip), vehicle: saline) 116 % of control.
As for `O=C(O)c1ccccc1C(=O)Nc1ccc([N+](=O)[O-])cc1Cl`, the T/C (dose: 50.0 mg/kg/injection, schedule: Q04DX003 (ip), vehicle: Klucel (hydroxypropylcellulose) (HPC)) is 100 % of control; the T/C under setting [4] was 100 % of control; the T/C under setting [5] is 95 % of control.
Regarding `COC(=O)[C@]1(C)CCC[C@]2(C)c3ccc(C(C)C)cc3CC[C@@H]12`, the T/C under setting [1] was 100 % of control; the T/C (dose: 0.5 mg/kg/injection, schedule: Q04DX003 (ip), vehicle: Klucel (hydroxypropylcellulose) (HPC)) is 100 % of control; the T/C (dose: 1.0 mg/kg/injection, schedule: Q01DX009 (ip), vehicle: Klucel (hydroxypropylcellulose) (HPC)) was 103 % of control; the T/C (dose: 1.0 mg/kg/injection, schedule: Q04DX003 (ip), vehicle: Klucel (hydroxypropylcellulose) (HPC)) was 100 % of control; the T/C under setting [2] was 92 % of control; the T/C (dose: 2.0 mg/kg/injection, schedule: Q04DX003 (ip), vehicle: Klucel (hydroxypropylcellulose) (HPC)) is 104 % of control.
Turning to `S=C(c1ccco1)N1CCOCC1`, the T/C by setting is: (dose: 37.5 mg/kg/injection, schedule: Q01DX009 (ip), vehicle: saline with Tween-80) 100 % of control; (dose: 75.0 mg/kg/injection, schedule: Q01DX009 (ip), vehicle: saline with Tween-80) 104 % of control; (dose: 150.0 mg/kg/injection, schedule: Q01DX009 (ip), vehicle: saline with Tween-80) 118 % of control.
Take `COc1ccc(C2=CCCC2)cc1`: the T/C is, setting by setting: under setting [4], 108 % of control; under setting [5], 95 % of control; under setting [6], 100 % of control.
With `O=c1oc(/C=C/c2ccccc2)nc2cc(Cl)ccc12`, the T/C is 100 % of control under setting [7], 109 % of control under setting [8] and 100 % of control under setting [9].
Turning to `O=[N+]([O-])c1ccc(C(Br)C(Br)c2ccccc2Cl)cc1` (centres undefined), the T/C under setting [4] is 100 % of control, the T/C under setting [5] was 100 % of control and the T/C under setting [6] was 100 % of control.
As for `Cn1cnc([N+](=O)[O-])c1[Se]c1ncnc2c1c(C#N)cn2C1OC(CO)C(O)C1O` (centres undefined), the T/C reads like this: (dose: 6.25 mg/kg/injection, schedule: Q04DX003 (ip), vehicle: saline) 93 % of control; (dose: 12.5 mg/kg/injection, schedule: Q04DX003 (ip), vehicle: saline) 119 % of control; under setting [3], 102 % of control.
On to `CCCS(=O)(=O)N(CC(=O)O)Cc1ccccc1`, for which the T/C (dose: 25.0 mg/kg/injection, schedule: Q04DX003 (ip), vehicle: other) was 106 % of control; the T/C (dose: 50.0 mg/kg/injection, schedule: Q04DX003 (ip), vehicle: other) was 104 % of control; the T/C (dose: 100.0 mg/kg/injection, schedule: Q04DX003 (ip), vehicle: other) was 100 % of control; the T/C (dose: 200.0 mg/kg/injection, schedule: Q04DX003 (ip), vehicle: other) is 106 % of control; the T/C (dose: 400.0 mg/kg/injection, schedule: Q04DX003 (ip), vehicle: other) is 106 % of control.
As for `CCC(=O)OCc1c(C)nc2sccn12`, the T/C runs as follows: (dose: 25.0 mg/kg/injection, schedule: Q01DX001 (ip), vehicle: saline) 96 % of control; (dose: 50.0 mg/kg/injection, schedule: Q01DX001 (ip), vehicle: saline) 102 % of control; (dose: 100.0 mg/kg/injection, schedule: Q01DX001 (ip), vehicle: saline) 105 % of control.
With `NC1=NC(=O)NC1(c1ccccc1)c1ccccc1`, the T/C is, setting by setting: (dose: 50.0 mg/kg/injection, schedule: Q01DX009 (ip), vehicle: saline with Tween-80) 107 % of control; (dose: 100.0 mg/kg/injection, schedule: Q01DX009 (ip), vehicle: saline with Tween-80) 91 % of control; (dose: 200.0 mg/kg/injection, schedule: Q01DX009 (ip), vehicle: saline with Tween-80) 90 % of control; (dose: 400.0 mg/kg/injection, schedule: Q01DX009 (ip), vehicle: saline with Tween-80) 94 % of control.
Consider `NCCCCC(N)C(=O)NCC(=O)O` (centres undefined) (H-[ξK]-Gly-OH), for which the T/C is 95 % of control (dose: 50.0 mg/kg/injection, schedule: Q01DX005 (ip), vehicle: saline); 102 % of control (dose: 100.0 mg/kg/injection, schedule: Q01DX005 (ip), vehicle: saline); 88 % of control (dose: 200.0 mg/kg/injection, schedule: Q01DX005 (ip), vehicle: saline).
`CCCCCCCCCOc1ccc(C=O)cc1OC`: the T/C was 100 % of control (dose: 100.0 mg/kg/injection, schedule: Q01DX001 (ip), vehicle: saline sonified); 90 % of control (dose: 200.0 mg/kg/injection, schedule: Q01DX001 (ip), vehicle: saline sonified); 100 % of control (dose: 400.0 mg/kg/injection, schedule: Q01DX001 (ip), vehicle: saline sonified).
Regarding `CCCCC(CC)COC(=O)CCC(CCC(=O)OCC(CC)CCCC)C(=O)OCC(CC)CCCC` (centres undefined), the T/C under setting [7] is 90 % of control, the T/C under setting [8] is 118 % of control and the T/C under setting [9] is 95 % of control.
